In patent publication US20190076507A1, “Artificial Red Blood Cell Having Ability to Inhibit Conversion of Hemoglobin into Methemoglobin” (Public University Corporation Nara Medical University, priority 2016, published 2019):

Columns and labels:
Type in all cases: biochemical
[1] = Catalase (pseudo CAT) activity from change of absorbance at 230 nm of H2O2; details: for catalase / CAT pseudo activity (in words): Examples 1 and 7; for pseudo CAT: Table 1, NADH without Hb, calculated relative to Hb conc. of 1.5 mM (10 g/dL)
Description: (§1) The activity of NADH-cytochrome b5 reductase in the above-mentioned purified and concentrated HbCO solution was determined as NADH-ferricyanide reductase activity according to Beutler, E. above. Diluted Hb samples comprising the enzyme to be measured is mixed with a buffer comprising NADH. The mixed solutions were left standing for 10 minutes at 30° C., and then potassium ferricyanide (K3Fe (CN)6), the enzyme substrate, was added to start the enzyme reaction. The decrease of difference of absorbance at 340 nm, a characteristic absorption of NADH, per minute was measured to determine activity unit E (IU/gHb). […] It was reasoned that the heat-labile NADH-cytochrome b5 reductase was eliminated as denatured and insoluble, or denatured and inactivated, due to the introduction of heat treatment during the purifying step. In addition, activities of NADPH metHb reductase and NADPH diaphorase, which correspond to NADPH-flavin reductase are also determined by the above-mentioned methods according to Beutler, E. Diluted blood samples comprising the enzyme to be measured is mixed with a buffer comprising NADPH. The mixed solutions were left standing for 10 minutes at 37° C., and then methylene bleu (MeBl), the enzyme substrate, was added to start the enzyme reaction. The decrease of difference of absorbance at 340 nm, a characteristic absorption of NADPH, per minute was measured to determine activity unit E (IU/gHb). […] Catalase activity of the purified HbCO solution was determined from the change of the absorbance at 230 nm, the absorption wavelength of H2O2, according to Beutler, E. (RED CELL METABOLISM: A MANUAL OF BIOCHEMICAL METHOD, Grune &Stratton, Inc. pp. 105-106 (1987)). […] Pyrogallol was used for measurement of SOD activity (Marklund, S. and Marklund, G., Eur. J. Biochem. 47, 469-474 (1974); Roth, E. F. Jr. and Gilbert, H. S., Anal. Biochem. 137, 50-53(1984)). Pyrogallol is oxidized with oxygen to generate superoxide, and further reacted to generate a yellow dye with absorbance at 420 nm. SOD inhibits this reaction. SOD enzyme activity was determined based on this inhibitory activity. Analyzed specimens were solutions of purified HbO2, HbCO, metHb and solutions thereof further comprising NADH or L-tyrosine In addition, enzyme activity of crude SFHb solution was also determined as a control. […] When NADH and HbO2 were coexisted, however, high CAT and SOD pseudo activities (Table 1). […] The pseudo activity was detected when NADH alone was present, however, the activity was about a tenth ( 1/10) compared with when HbO2 was coexisted. […] There were results showing that this pseudo activity increased as more NADH was added.

[2] = SOD (pseudo SOD) activity, pyrogallol method; details: for SOD / SOD pseudo activity (in words): Examples 1 and 7; for pseudo SOD: Table 1, pyrogallol, absorbance at 420 nm, Hb form and antioxidant conc. per entry
Description: as §1

HbO2 = target: T1, HbO2 (Homo sapiens, UniProt P68871+P69905); experiment: Screening of suppressing effect of compounds against autoxidation of HbO2; details: for metHb conversion (%): HbO2 10 g/dL, antioxidant 1 g/dL, 37° C., 24 hours
T1 construct: The Hb released by hemolysis was filtered and collected, with the red blood cell membrane components (stroma) separated and removed; from tissue; host or cells: human red blood cells (expired donated blood); heat-treated, nanofiltered, purified and concentrated HbCO, photoconverted to HbO2
Description: NADH was purchased from Oriental Yeast Co. Ltd., and all the rest were purchased from Sigma-Aldrich (St. Louis, Mo., USA). HbCO solution was transferred to an eggplant flask and irradiated with visible light (halogen lamp; LPL Videeoligtvl-302, LPLCO. Ltd., Tokyo, Japan) under oxygen gas flow to convert to HbO2. […] The conversion ratios to metHb were determined from the visible absorption spectrum. The measurement of spectrum between 300 nm to 500 nm was conducted using a spectrophotometer (V-660, Japan Spectroscopic Company (JASCO)) mounted with a device to control the light scattering to the minimum (an integrating sphere). The atmosphere inside of a Thunberg cuvette was replaced with nitrogen gas and the conversion ratios to metHb were determined from the ratios of absorbance at 405 nm (λmax of metHb) and 430 nm (λmax of deoxyHb).

T1 sequence (P69905 2-142 limits assumed): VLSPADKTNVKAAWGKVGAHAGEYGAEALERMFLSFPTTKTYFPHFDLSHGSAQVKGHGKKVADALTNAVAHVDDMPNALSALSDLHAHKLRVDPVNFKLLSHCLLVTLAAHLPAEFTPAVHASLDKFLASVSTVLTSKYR
T1 sequence (P68871 2-147 limits assumed): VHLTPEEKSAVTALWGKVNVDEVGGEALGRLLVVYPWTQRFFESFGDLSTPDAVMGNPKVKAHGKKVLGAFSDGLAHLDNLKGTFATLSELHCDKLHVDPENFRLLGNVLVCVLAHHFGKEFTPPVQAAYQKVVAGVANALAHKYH

13: oxyhemoglobin 1.5 mM prepared from the purified Hb solution, no antioxidant [Entry 13]
catalase / CAT pseudo activity (in words) [1]: no enzyme activity was found
SOD / SOD pseudo activity (in words) [2]: no enzyme activity was found

14: methemoglobin 1.5 mM prepared from the purified Hb solution, no antioxidant [Entry 14]
catalase / CAT pseudo activity (in words) [1]: no enzyme activity was found
SOD / SOD pseudo activity (in words) [2]: no enzyme activity was found

15: carbonyl Hb 1.5 mM prepared from the purified Hb solution, no antioxidant [Entry 15]
catalase / CAT pseudo activity (in words) [1]: no enzyme activity was found
SOD / SOD pseudo activity (in words) [2]: no enzyme activity was found

Nc1ncnc2c1ncn2[C@@H]1O[C@H](COP(=O)(O)OP(=O)(O)OP(=O)(O)O)[C@@H](O)[C@H]1O [ATP]
metHb conversion (%) (HbO2): 44%

O=C[C@H](O)[C@@H](O)[C@H](O)[C@H](O)CO [D-glucose]
metHb conversion (%) (HbO2): 36%

NC(=O)C1=CN([C@@H]2O[C@H](COP(=O)(O)OP(=O)(O)OC[C@H]3O[C@@H](n4cnc5c(N)ncnc54)[C@H](O)[C@@H]3O)[C@@H](O)[C@H]2O)C=CC1 [Entry 10, NADH]
pseudo CAT [1]: 3.6 × 10^4 *) IU/g Hb
pseudo SOD [2]: 1.1 × 10^2 U/g Hb

NC(=O)C1=CN([C@@H]2O[C@H](COP(=O)(O)OP(=O)(O)OC[C@H]3O[C@@H](n4cnc5c(N)ncnc54)[C@H](O)[C@@H]3O)[C@@H](O)[C@H]2O)C=CC1 [Entry 11, NADH]
pseudo CAT [1]: 4.1 × 10^4 *) IU/g Hb
pseudo SOD [2]: 1.3 × 10^2 U/g Hb

NC(=O)C1=CN([C@@H]2O[C@H](COP(=O)(O)OP(=O)(O)OC[C@H]3O[C@@H](n4cnc5c(N)ncnc54)[C@H](O)[C@@H]3O)[C@@H](O)[C@H]2O)C=CC1 [Entry 12, NADH]
pseudo CAT [1]: 19.2 × 10^4 *) IU/g Hb
pseudo SOD [2]: 0.6 × 10^2 U/g Hb

N=C(N)NCCC[C@H](N)C(=O)O [L-arginine]
metHb conversion (%) (HbO2): 38%

NC(=O)C[C@H](N)C(=O)O [L-asparagine]
metHb conversion (%) (HbO2): 40%

N[C@@H](CS)C(=O)O [L-cysteine]
metHb conversion (%) (HbO2): 34%

NC(=O)CC[C@H](N)C(=O)O [L-glutamine]
metHb conversion (%) (HbO2): 43%

N[C@@H](Cc1c[nH]cn1)C(=O)O [L-histidine]
metHb conversion (%) (HbO2): 32%

NCCCC[C@H](N)C(=O)O [L-lysine]
metHb conversion (%) (HbO2): 34%

CSCC[C@H](N)C(=O)O [L-methionine]
metHb conversion (%) (HbO2): 41%

N[C@@H](Cc1c[nH]c2ccccc12)C(=O)O [L-tryptophan]
metHb conversion (%) (HbO2): 38%

N[C@@H](Cc1ccc(O)cc1)C(=O)O [L-tyrosine]
metHb conversion (%) (HbO2): 38%

NC(=O)C1=CN([C@@H]2O[C@H](COP(=O)(O)OP(=O)(O)OC[C@H]3O[C@@H](n4cnc5c(N)ncnc54)[C@H](OP(=O)(O)O)[C@@H]3O)[C@@H](O)[C@H]2O)C=CC1 [NADPH, nicotinamide adenine dinucleotide phosphate (NADPH)]
metHb conversion (%) (HbO2): 37%
effect to suppress metHb conversion compared with NADH (HbO2; coexisting with HbO2 at 37° C. for 26 hours): inferior to that of NADH

CC1=C(/C=C/C(C)=C/C=C/C(C)=C/C=C/C=C(C)/C=C/C=C(C)/C=C/C2=C(C)C(=O)[C@@H](O)CC2(C)C)C(C)(C)C[C@H](O)C1=O [astaxanthin]
metHb conversion (%) (HbO2): 39%

OCC(O)CO [glycerol]
metHb conversion (%) (HbO2): 38%

NC(=O)c1cccnc1 [nicotinamide]
metHb conversion (%) (HbO2): 34%

O=c1c(O)c(-c2ccc(O)c(O)c2)oc2cc(O)cc(O)c12 [quercetin]
metHb conversion (%) (HbO2): 42%

O=C1O[C@H]([C@@H](O)CO)C([O-])=C1O.[Na+] [sodium L-Ascorbate]
metHb conversion (%) (HbO2): 37%

O=C([O-])[C@H](O)[C@@H](O)[C@H](O)[C@H](O)CO.[Na+] [sodium gluconate]
metHb conversion (%) (HbO2): 49%
